Read-outs that look alike come from different tables or passages of the source.
Experiments:
[1] = assay type: in vivo; conditions: for Duration of release from the ring: delayed release ring
Description: The rate of hydration of the intravaginal device depends on many factors, including the rate of water penetration into the polymer. The rate of water penetration can be modulated by the osmotic pressure within the polymer. The osmotic pressure can be modulated by adding salt (NaCl, KCl, etc) to the formulation of the drug.
Estradiol and GnRH can be formulated as described herein. Yet, additional salt is added (300 mmol).

[2] = Expected characteristics of Ring A / Ring B formulations (Table II); assay type: in vivo; conditions: 21 days of release
Text: In an alternate embodiment of this aspect of the invention, the two formulations described above (the LHRH/estrogenic steroid formulation and LHRH/estrogenic/progestational steroid formulation) are combined in one drug delivery device, which is designed to remain in the vagina of the female for the entire menstrual cycle. In this embodiment, the drug delivery device comprises at least one cylindrical unitary segment per hormonal formulation, or, alternatively, at least one cylindrical unitary segment per active ingredient (i.e., LHRH, sex steroid, or sex steroid modulator). The choice of polymeric material and the ratio of polymeric material to LHRH/sex steroid/sex steroid modulator are preselected for each segment to provide the appropriate release kinetics for the individual steroids and/or steroidal formulations. By selecting the polymeric material based on its release properties and adjusting the ratio of polymeric material to drug, the method of the present invention provides the pre-set timed delivery of LHRH, estrogenic steroid, and progestational steroid at the appropriate phase of the menstrual cycle to achieve the desired contraceptive effect. For example, this “combined” device would release LHRH and/or its agonists or antagonists continuously for 30 days in combination with an estrogenic compound.

[3] = endogenous, normal menstrual cycle, cited from earlier work; for Tmax: phase of cycle
[4] = estradiol administered at 100 μg/day; cited from earlier work
[5] = assay type: physicochemical; conditions: for In vitro release kinetics: EVA ring, 70:30 PBS:EtOH pH 6, 37° C., 14 to 21 day period
Description: At the indicated time points media was collected and measured by HPLC on an Agilent 1100 Series HPLC (Agilent, Forest City, Calif.). […] Results were calculated based on the area under the curve compared to a 5 point calibration curve. Results were expressed as the cumulative release in μg released over the course of the experiment.

[6] = In vitro release from double-sided EVA disc (Example 6); assay type: physicochemical; conditions: 70:30 PBS:EtOH pH 6, 37° C.
Description: Also, the EVA/drug mixtures were combined to form a double-sided disc, comprising estradiol on one side and progesterone on the other. After drying, the discs were evaluated for their release kinetics. […] At the indicated time points, 100% of the media was collected for measurement and 100 ml of release media was replaced. The media was measured by an Agilent 1100 Series HPLC (Agilent). […] Results were calculated based on the area under the curve compared to a 5 point calibration curve and depicted in FIG. 7 as the cumulative percent released.

[7] = Effect of cellulosics (Methocel) on in vitro release from EVA (Example 5); assay type: physicochemical; conditions: EVA with 5% or 25% Methocel, PBS pH 6.10:ethanol 70:30, 37° C.
Text: Also, varying amounts of a commercially available cellulosic, Methocel® (Dow Chemicals, Co., Midland, Mich.) were incorporated into the mixtures to evaluate the effect of cellulosics on release kinetics. […] The solutions were slowly emulsified into a methylene chloride solution containing EVA. The resulting emulsions were solvent-casted into a mold, which was then cooled on dry ice. Following sublimation, the […] were cut into 1 cm×1 cm samples, and placed in scintillation vials, to which 0.1 M phosphate buffered saline (pH 6.10) and ethanol were added in a 70:30 ratio. The vials were placed in a 37° C. incubator on a shaker rotating at 100 RPM. The buffer solution was replaced at predetermined time points. […] Next, the release kinetics were determined by plotting the cumulative release amounts as a function of time.

[8] = tested on: endogenous luteinizing hormone (LH); assay: Intravaginal administration of GnRH/hydrogel to Rhesus monkeys, serum endogenous LH (Example 7); assay type: in vivo; conditions: 10 mg GnRH in 2 g hydrogel, 48 hours

| Duration of release from the ring [1] [days] | Drug Circulation Level ([2]; Ring A) [pg/mL] | Drug Circulation Level ([2]; Ring B) [pg/mL] | Time after which release begins ([1]; segment without salt) [days] | In vitro release kinetics [6] | In vitro release kinetics with addition of Methocel [7] | Compound | Cmax [3] [ng/mL] | Steady State Serum Concentration [3] [pg/mL] | Tmax [3] | Serum level produced [4] | T1/2 [3] [h] | In vitro release kinetics [5] | Serum level in the circulation that the delivery rates are capable of producing [5] [ng/mL] | Time for which the ring sustains adequate flux rates ([5]; not told) | Effect on endogenous LH levels [8] |
| --- | --- | --- | --- | --- | --- | --- | --- | --- | --- | --- | --- | --- | --- | --- | --- |
| 28 |  |  |  |  |  | CCNC(=O)[C@@H]1CCCN1C(=O)[C@H](CCCNC(=N)N)NC(=O)[C@H](CC(C)C)NC(=O)[C@@H](Cc1c[nH]c2ccccc12)NC(=O)[C@H](Cc1ccc(O)cc1)NC(=O)[C@H](CO)NC(=O)[C@H](Cc1c[nH]c2ccccc12)NC(=O)[C@H](Cc1c[nH]cn1)NC(=O)[C@@H]1CCC(=O)N1 [D-Trp6-Pro9-Net-GnRH] |  |  |  |  |  |  |  |  |  |
|  | 100 | 100 |  |  |  | C[C@]12CC[C@@H]3c4ccc(O)cc4CC[C@H]3[C@@H]1CC[C@@H]2O [Estradiol, estradiol] | 0.5 | 50 to 500 | Midcycle | approximately 100 pg/ml |  |  |  |  |  |
| 4 |  | 6000 | 14 | independent bi-phasic release kinetics | pseudo zero order release kinetics | CC(=O)[C@H]1CC[C@H]2[C@@H]3CCC4=CC(=O)CC[C@]4(C)[C@H]3CC[C@]12C [Progesterone, progesterone] | 35 | 2000 to 6000 | Midluteal |  | 12 | stable zero order release kinetics |  |  |  |
|  |  |  |  |  |  | p-Glu-His-Trp-Ser-Tyr-Gly-Leu-Arg-Pro-Gly-NH2 [GnRH] |  |  |  |  |  | stable zero order release kinetics | 3 to 6 | at least 21 days | produces elevated levels of endogenous LH |
